Reference: PMC12155096 (International Journal of Molecular Sciences, 2025)
Counter-ions that a name gives are not always drawn.

target: T1, human CYP2C9 (Homo sapiens, UniProt P11712); assay: biochemical; details: CYP2C9 IC50 (half-maximal inhibitory concentration)
T1 sequence (P11712 whole entry): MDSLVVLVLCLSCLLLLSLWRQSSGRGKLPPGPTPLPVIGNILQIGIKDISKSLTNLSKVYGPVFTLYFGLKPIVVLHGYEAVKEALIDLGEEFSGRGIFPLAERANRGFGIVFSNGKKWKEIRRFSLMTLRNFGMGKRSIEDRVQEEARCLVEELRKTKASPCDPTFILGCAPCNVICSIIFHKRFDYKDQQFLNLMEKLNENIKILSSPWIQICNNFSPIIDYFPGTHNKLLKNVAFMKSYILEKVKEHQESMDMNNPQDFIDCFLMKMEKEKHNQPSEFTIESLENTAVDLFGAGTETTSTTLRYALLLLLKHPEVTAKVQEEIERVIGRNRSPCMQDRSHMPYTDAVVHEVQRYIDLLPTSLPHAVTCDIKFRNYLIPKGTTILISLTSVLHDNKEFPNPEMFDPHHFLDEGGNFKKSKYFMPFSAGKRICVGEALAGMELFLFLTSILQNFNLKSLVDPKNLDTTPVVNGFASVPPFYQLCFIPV

| Structure (SMILES) | IC50 [µM] |
| --- | --- |
| COCCOC(=O)C1=C(C)NC(C)=C(C(=O)OC/C=C/c2ccccc2)C1c1cccc([N+](=O)[O-])c1 (stereo not shown) [Cilnidipine] | 0.21 |
| CC(C)(C)C(=O)C(Oc1ccc(Cl)cc1)n1ccnc1 (stereo not shown) [Climbazole] | 3.23 |
| CCCC(=O)O[C@]1(C(=O)CCl)[C@@H](C)C[C@H]2[C@@H]3CCC4=CC(=O)C=C[C@]4(C)[C@@]3(F)C(=O)C[C@@]21C [Clobetasone butyrate] | 17.6 |
| O=C(Nc1ccccc1)OCC(CN1CCCCC1)OC(=O)Nc1ccccc1 (stereo not shown) [Diperodon hydrochloride] | 20.8 |
| O=C(CN1CCN(Cc2ccc3c(c2)OCO3)CC1)N1c2ccccc2Sc2ccccc21 [Fenoverine] | 18.9 |
| C[C@@H]1C[C@H]2[C@@H]3CCC4=CC(=O)C=C[C@]4(C)[C@@]3(Cl)[C@@H](O)C[C@]2(C)[C@@]1(OC(=O)c1ccco1)C(=O)CCl [Mometasone furoate, reference compound] | 8.08 |
| Cc1c(O)cccc1C(=O)N[C@@H](CSc1ccccc1)[C@H](O)CN1C[C@H]2CCCC[C@H]2C[C@H]1C(=O)NC(C)(C)C [Nelfinavir mesylate] | 19.1 |
| O=C(OCC1(COC(=O)c2cccnc2)CCCC(COC(=O)c2cccnc2)(COC(=O)c2cccnc2)C1O)c1cccnc1 [Nicomolol] | 8.67 |
| COc1ccc2c(c1OC)C(=O)O[C@@H]2[C@H]1c2c(cc3c(c2OC)OCO3)CCN1C [Noscapine] | 0.84 |
| CC(N/C(=N\C#N)Nc1ccncc1)C(C)(C)C (stereo not shown) [Pinacidil monohydrate] | 13.9 |
| CCCc1nn(C)c2c(=O)[nH]c(-c3cc(S(=O)(=O)N4CCN(C)CC4)ccc3OCC)nc12 [Sildenafil citrate] | 20.6 |
| CC1(C)CCC(=Cc2ccc(Cl)cc2)C1(O)Cn1cncn1 (stereo not shown) [Triticonazole] | 1.47 |
| C=CCOC(Cn1ccnc1)c1ccc(Cl)cc1Cl (stereo not shown) [imazalil] | 0.77 |

target: T1, human CYP2C9; assay: not given; details: human

| Structure (SMILES) | CYP2C9 Efficacy (in parenthesis) |
| --- | --- |
| CC(N/C(=N\C#N)Nc1ccncc1)C(C)(C)C (stereo not shown) [Pinacidil monohydrate] | 13.86 ± 1.59 (-102 ± 3) % |
| CC1(C)CCC(=Cc2ccc(Cl)cc2)C1(O)Cn1cncn1 (stereo not shown) [Triticonazole] | 1.47 ± 0.17 (-105 ± 3) % |

target: T2, human CYP1A2 (Homo sapiens, UniProt P05177); assay: biochemical; details: not given
T2 sequence (P05177 1-516): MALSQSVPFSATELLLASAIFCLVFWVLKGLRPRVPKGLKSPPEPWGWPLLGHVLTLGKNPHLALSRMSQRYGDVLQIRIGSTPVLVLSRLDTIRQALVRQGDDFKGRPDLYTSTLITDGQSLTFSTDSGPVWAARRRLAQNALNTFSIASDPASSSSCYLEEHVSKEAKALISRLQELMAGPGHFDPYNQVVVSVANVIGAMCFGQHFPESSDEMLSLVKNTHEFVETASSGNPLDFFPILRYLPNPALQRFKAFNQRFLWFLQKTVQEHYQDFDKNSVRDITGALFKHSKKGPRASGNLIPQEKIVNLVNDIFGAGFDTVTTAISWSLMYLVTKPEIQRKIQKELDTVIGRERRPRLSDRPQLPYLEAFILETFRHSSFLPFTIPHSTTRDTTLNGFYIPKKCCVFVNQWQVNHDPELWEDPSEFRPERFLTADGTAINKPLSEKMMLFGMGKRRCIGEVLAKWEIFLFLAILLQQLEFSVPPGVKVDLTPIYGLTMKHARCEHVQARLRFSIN

| Structure (SMILES) | IC50 [µM] |
| --- | --- |
| CCN(CC)CCOc1ccccc1C(=O)CCc1ccccc1 [Etafenone] | 6.05 ± 1.51 |
| CN1CCCN=C1COC(=O)C(O)(c1ccccc1)C1CCCCC1 (stereo not shown) [Oxyphencyclimine hydrochloride] | 14.6 |

same assay, conditions: CYP1A2 AC50 (half-maximal activity concentration)

| Structure (SMILES) | AC50 [µM] |
| --- | --- |
| CC(CCc1ccccc1)NC(C)C(O)c1ccc(O)cc1 (stereo not shown) [Nylidrin] | 13.6 |

same assay, conditions: CYP1A2 IC50 (half-maximal inhibitory concentration)

| Structure (SMILES) | IC50 [µM] |
| --- | --- |
| COc1ccc2cc3[n+](cc2c1OC)CCc1cc2c(cc1-3)OCO2 [Berberine chloride] | 23.6 |
| COCCOC(=O)C1=C(C)NC(C)=C(C(=O)OC/C=C/c2ccccc2)C1c1cccc([N+](=O)[O-])c1 (stereo not shown) [Cilnidipine] | 15.6 |
| CC(C)(C)C(=O)C(Oc1ccc(Cl)cc1)n1ccnc1 (stereo not shown) [Climbazole] | 16.1 |
| CN1CCN(CCC(=O)N2c3ccccc3Sc3ccc(C(F)(F)F)cc32)CC1 [Ftormetazine] | 29.2 |
| CC(CCc1ccccc1)NC(C)C(O)c1ccc(O)cc1 (stereo not shown) [Nylidrin] | 13.6 |

target: T3, human CYP2C19 (Homo sapiens, UniProt P33261); assay: not given; details: human
T3 sequence (P33261 whole entry): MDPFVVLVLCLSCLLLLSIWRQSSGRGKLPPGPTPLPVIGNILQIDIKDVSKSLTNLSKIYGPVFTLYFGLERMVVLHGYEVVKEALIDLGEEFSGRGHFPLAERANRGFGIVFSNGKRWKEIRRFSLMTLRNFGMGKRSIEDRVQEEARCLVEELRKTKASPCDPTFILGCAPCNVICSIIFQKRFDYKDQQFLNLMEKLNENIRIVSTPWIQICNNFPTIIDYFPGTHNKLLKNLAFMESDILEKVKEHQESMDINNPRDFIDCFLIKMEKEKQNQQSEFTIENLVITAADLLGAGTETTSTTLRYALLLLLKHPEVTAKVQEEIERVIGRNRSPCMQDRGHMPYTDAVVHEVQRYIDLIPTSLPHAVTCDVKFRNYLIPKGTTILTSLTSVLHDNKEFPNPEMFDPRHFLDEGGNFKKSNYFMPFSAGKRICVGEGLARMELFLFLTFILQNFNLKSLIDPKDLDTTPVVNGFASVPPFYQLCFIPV

| Structure (SMILES) | CYP2C19 Efficacy (in parenthesis) |
| --- | --- |
| CC(N/C(=N\C#N)Nc1ccncc1)C(C)(C)C (stereo not shown) [Pinacidil monohydrate] | 2.06 ± 0.47 (-116 ± 6) % |
| CC1(C)CCC(=Cc2ccc(Cl)cc2)C1(O)Cn1cncn1 (stereo not shown) [Triticonazole] | 0.34 ± 0.15 (-129 ± 16) % |

target: T4, human CYP2D6 (Homo sapiens, UniProt P10635); assay: not given; details: human
T4 sequence (P10635 whole entry): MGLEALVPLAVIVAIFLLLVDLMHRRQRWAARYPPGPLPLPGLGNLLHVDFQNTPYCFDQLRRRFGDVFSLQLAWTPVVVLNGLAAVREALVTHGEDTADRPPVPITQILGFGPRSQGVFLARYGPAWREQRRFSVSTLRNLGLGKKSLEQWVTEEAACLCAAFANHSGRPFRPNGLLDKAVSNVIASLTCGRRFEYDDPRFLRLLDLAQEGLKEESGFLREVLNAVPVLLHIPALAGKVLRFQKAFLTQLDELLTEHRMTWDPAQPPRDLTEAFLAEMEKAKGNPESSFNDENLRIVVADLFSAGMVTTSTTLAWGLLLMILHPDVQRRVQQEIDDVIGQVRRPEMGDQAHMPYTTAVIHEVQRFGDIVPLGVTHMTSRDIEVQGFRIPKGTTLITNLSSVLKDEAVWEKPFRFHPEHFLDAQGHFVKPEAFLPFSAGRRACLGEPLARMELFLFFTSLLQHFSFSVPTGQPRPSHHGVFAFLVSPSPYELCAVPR

| Structure (SMILES) | CYP2D6 Efficacy (in parenthesis) |
| --- | --- |
| CC(N/C(=N\C#N)Nc1ccncc1)C(C)(C)C (stereo not shown) [Pinacidil monohydrate] | 25.27 ± 7.04 (-50 ± 9) % |
| CC1(C)CCC(=Cc2ccc(Cl)cc2)C1(O)Cn1cncn1 (stereo not shown) [Triticonazole] | 9.5 ± 2.8 (-97 ± 3) % |

target: T3, human CYP2C19; assay: biochemical; details: not given

| Structure (SMILES) | IC50 [µM] |
| --- | --- |
| CCN(CC)CCOc1ccccc1C(=O)CCc1ccccc1 [Etafenone] | 35.6 ± 11.4 |

same assay, conditions: CYP2C19 AC50 (half-maximal activity concentration)

| Structure (SMILES) | AC50 [µM] |
| --- | --- |
| CC(CCc1ccccc1)NC(C)C(O)c1ccc(O)cc1 (stereo not shown) [Nylidrin] | 9.42 |

same assay, conditions: CYP2C19 IC50 (half-maximal inhibitory concentration)

| Structure (SMILES) | IC50 [µM] |
| --- | --- |
| COc1ccc2cc3[n+](cc2c1OC)CCc1cc2c(cc1-3)OCO2 [Berberine chloride] | 26.9 |
| COCCOC(=O)C1=C(C)NC(C)=C(C(=O)OC/C=C/c2ccccc2)C1c1cccc([N+](=O)[O-])c1 (stereo not shown) [Cilnidipine] | 1.75 |
| CC(C)(C)C(=O)C(Oc1ccc(Cl)cc1)n1ccnc1 (stereo not shown) [Climbazole] | 1.56 |
| CCCC(=O)O[C@]1(C(=O)CCl)[C@@H](C)C[C@H]2[C@@H]3CCC4=CC(=O)C=C[C@]4(C)[C@@]3(F)C(=O)C[C@@]21C [Clobetasone butyrate] | 8.43 |
| O=C(Nc1ccccc1)OCC(CN1CCCCC1)OC(=O)Nc1ccccc1 (stereo not shown) [Diperodon hydrochloride] | 7.12 |
| O=C(CN1CCN(Cc2ccc3c(c2)OCO3)CC1)N1c2ccccc2Sc2ccccc21 [Fenoverine] | 40.7 |
| CN1CCN(CCC(=O)N2c3ccccc3Sc3ccc(C(F)(F)F)cc32)CC1 [Ftormetazine] | 27 |
| C[C@@H]1C[C@H]2[C@@H]3CCC4=CC(=O)C=C[C@]4(C)[C@@]3(Cl)[C@@H](O)C[C@]2(C)[C@@]1(OC(=O)c1ccco1)C(=O)CCl [Mometasone furoate, reference compound] | 7.97 |
| Cc1c(O)cccc1C(=O)N[C@@H](CSc1ccccc1)[C@H](O)CN1C[C@H]2CCCC[C@H]2C[C@H]1C(=O)NC(C)(C)C [Nelfinavir mesylate] | 42.1 |
| O=C(OCC1(COC(=O)c2cccnc2)CCCC(COC(=O)c2cccnc2)(COC(=O)c2cccnc2)C1O)c1cccnc1 [Nicomolol] | 23.3 |
| COc1ccc2c(c1OC)C(=O)O[C@@H]2[C@H]1c2c(cc3c(c2OC)OCO3)CCN1C [Noscapine] | 1.38 |
| CC(CCc1ccccc1)NC(C)C(O)c1ccc(O)cc1 (stereo not shown) [Nylidrin] | 9.42 |
| CC(N/C(=N\C#N)Nc1ccncc1)C(C)(C)C (stereo not shown) [Pinacidil monohydrate] | 2.06 |
| CCCc1nn(C)c2c(=O)[nH]c(-c3cc(S(=O)(=O)N4CCN(C)CC4)ccc3OCC)nc12 [Sildenafil citrate] | 30.4 |
| CC1(C)CCC(=Cc2ccc(Cl)cc2)C1(O)Cn1cncn1 (stereo not shown) [Triticonazole] | 0.34 |
| C=CCOC(Cn1ccnc1)c1ccc(Cl)cc1Cl (stereo not shown) [imazalil] | 0.15 |

target: T4, human CYP2D6; assay: biochemical; details: not given

| Structure (SMILES) | IC50 [µM] |
| --- | --- |
| CCN(CC)CCOc1ccccc1C(=O)CCc1ccccc1 [Etafenone] | 0.64 ± 0.08 |
| CN1CCCN=C1COC(=O)C(O)(c1ccccc1)C1CCCCC1 (stereo not shown) [Oxyphencyclimine hydrochloride] | 0.92 |

same assay, conditions: CYP2D6 AC50 (half-maximal activity concentration)

| Structure (SMILES) | AC50 [nM] |
| --- | --- |
| CC(CCc1ccccc1)NC(C)C(O)c1ccc(O)cc1 (stereo not shown) [Nylidrin] | 490 |

same assay, conditions: CYP2D6 IC50 (half-maximal inhibitory concentration)

| Structure (SMILES) | IC50 [µM] |
| --- | --- |
| COc1ccc2cc3[n+](cc2c1OC)CCc1cc2c(cc1-3)OCO2 [Berberine chloride] | 0.52 |
| COCCOC(=O)C1=C(C)NC(C)=C(C(=O)OC/C=C/c2ccccc2)C1c1cccc([N+](=O)[O-])c1 (stereo not shown) [Cilnidipine] | 29.2 |
| CC(C)(C)C(=O)C(Oc1ccc(Cl)cc1)n1ccnc1 (stereo not shown) [Climbazole] | 28.7 |
| CCCC(=O)O[C@]1(C(=O)CCl)[C@@H](C)C[C@H]2[C@@H]3CCC4=CC(=O)C=C[C@]4(C)[C@@]3(F)C(=O)C[C@@]21C [Clobetasone butyrate] | 7.77 |
| O=C(Nc1ccccc1)OCC(CN1CCCCC1)OC(=O)Nc1ccccc1 (stereo not shown) [Diperodon hydrochloride] | 0.36 |
| O=C(CN1CCN(Cc2ccc3c(c2)OCO3)CC1)N1c2ccccc2Sc2ccccc21 [Fenoverine] | 0.46 |
| CN1CCN(CCC(=O)N2c3ccccc3Sc3ccc(C(F)(F)F)cc32)CC1 [Ftormetazine] | 0.14 |
| C[C@@H]1C[C@H]2[C@@H]3CCC4=CC(=O)C=C[C@]4(C)[C@@]3(Cl)[C@@H](O)C[C@]2(C)[C@@]1(OC(=O)c1ccco1)C(=O)CCl [Mometasone furoate, reference compound] | 3.75 |
| Cc1c(O)cccc1C(=O)N[C@@H](CSc1ccccc1)[C@H](O)CN1C[C@H]2CCCC[C@H]2C[C@H]1C(=O)NC(C)(C)C [Nelfinavir mesylate] | 14.4 |
| O=C(OCC1(COC(=O)c2cccnc2)CCCC(COC(=O)c2cccnc2)(COC(=O)c2cccnc2)C1O)c1cccnc1 [Nicomolol] | 22.4 |
| COc1ccc2c(c1OC)C(=O)O[C@@H]2[C@H]1c2c(cc3c(c2OC)OCO3)CCN1C [Noscapine] | 12.9 |
| CC(CCc1ccccc1)NC(C)C(O)c1ccc(O)cc1 (stereo not shown) [Nylidrin] | 0.49 |
| CC(N/C(=N\C#N)Nc1ccncc1)C(C)(C)C (stereo not shown) [Pinacidil monohydrate] | 25.3 |
| CCCc1nn(C)c2c(=O)[nH]c(-c3cc(S(=O)(=O)N4CCN(C)CC4)ccc3OCC)nc12 [Sildenafil citrate] | 31.7 |
| CC1(C)CCC(=Cc2ccc(Cl)cc2)C1(O)Cn1cncn1 (stereo not shown) [Triticonazole] | 9.5 |
| C=CCOC(Cn1ccnc1)c1ccc(Cl)cc1Cl (stereo not shown) [imazalil] | 6.12 |
